{"source": "PubChem BioAssay (NCI)", "assay_in_all_cases": "NCI tumour cell line growth inhibition, 48 h", "key": {"OVCAR-5 ovarian": {"tested_on": "OVCAR-5 ovarian"}, "SN12C renal": {"tested_on": "SN12C renal"}, "SN12K1 renal": {"tested_on": "SN12K1 renal"}, "SR leukemia": {"tested_on": "SR leukemia"}, "SNB-78 CNS": {"tested_on": "SNB-78 CNS"}, "HOP-18 NSCLC": {"tested_on": "HOP-18 NSCLC"}, "U251 CNS": {"tested_on": "U251 CNS"}, "MALME-3M melanoma": {"tested_on": "MALME-3M melanoma"}, "DMS 114 small cell lung": {"tested_on": "DMS 114 small cell lung"}, "KM20L2 colon": {"tested_on": "KM20L2 colon"}, "NCI-H23 lung": {"tested_on": "NCI-H23 lung"}, "MOLT-4 leukemia": {"tested_on": "MOLT-4 leukemia"}, "HL-60(TB) leukemia": {"tested_on": "HL-60(TB) leukemia"}, "BT-549 breast": {"tested_on": "BT-549 breast"}, "NCI-H522 lung": {"tested_on": "NCI-H522 lung"}, "HCT-15 colon": {"tested_on": "HCT-15 colon"}, "MCF7 breast": {"tested_on": "MCF7 breast"}, "SW-620 colon": {"tested_on": "SW-620 colon"}, "NCI-H226 lung": {"tested_on": "NCI-H226 lung"}, "SK-MEL-28 melanoma": {"tested_on": "SK-MEL-28 melanoma"}, "EKVX NSCLC": {"tested_on": "EKVX NSCLC"}, "M19-MEL melanoma": {"tested_on": "M19-MEL melanoma"}, "OVCAR-8 ovarian": {"tested_on": "OVCAR-8 ovarian"}, "OVCAR-3 ovarian": {"tested_on": "OVCAR-3 ovarian"}, "SNB-19 CNS": {"tested_on": "SNB-19 CNS"}, "HOP-62 NSCLC": {"tested_on": "HOP-62 NSCLC"}, "CAKI-1 renal": {"tested_on": "CAKI-1 renal"}, "UO-31 renal": {"tested_on": "UO-31 renal"}, "HOP-92 NSCLC": {"tested_on": "HOP-92 NSCLC"}, "A498 renal": {"tested_on": "A498 renal"}, "RXF 393 renal": {"tested_on": "RXF 393 renal"}, "UACC-257 melanoma": {"tested_on": "UACC-257 melanoma"}, "P388/ADR leukemia": {"tested_on": "P388/ADR leukemia"}, "SK-MEL-2 melanoma": {"tested_on": "SK-MEL-2 melanoma"}, "SK-OV-3 ovarian": {"tested_on": "SK-OV-3 ovarian"}, "LOX IMVI melanoma": {"tested_on": "LOX IMVI melanoma"}, "UACC-62 melanoma": {"tested_on": "UACC-62 melanoma"}, "SNB-75 CNS": {"tested_on": "SNB-75 CNS"}, "786-0 renal": {"tested_on": "786-0 renal"}, "COLO 205 colon": {"tested_on": "COLO 205 colon"}, "HCC-2998 colon": {"tested_on": "HCC-2998 colon"}, "SF-268 CNS": {"tested_on": "SF-268 CNS"}, "HT29 colon": {"tested_on": "HT29 colon"}, "DLD-1 colon": {"tested_on": "DLD-1 colon"}, "KM12 colon": {"tested_on": "KM12 colon"}, "CCRF-CEM leukemia": {"tested_on": "CCRF-CEM leukemia"}, "ACHN renal": {"tested_on": "ACHN renal"}, "XF 498 CNS": {"tested_on": "XF 498 CNS"}, "MDA-MB-231 breast": {"tested_on": "MDA-MB-231 breast"}, "DMS 273 small cell lung": {"tested_on": "DMS 273 small cell lung"}, "K-562 leukemia": {"tested_on": "K-562 leukemia"}, "RPMI-8226 leukemia": {"tested_on": "RPMI-8226 leukemia"}, "HCT-116 colon": {"tested_on": "HCT-116 colon"}, "SF-295 CNS": {"tested_on": "SF-295 CNS"}, "IGROV1 ovarian": {"tested_on": "IGROV1 ovarian"}, "A549 NSCLC": {"tested_on": "A549 NSCLC"}, "NCI/ADR-RES ovarian": {"tested_on": "NCI/ADR-RES ovarian"}, "SF-539 CNS": {"tested_on": "SF-539 CNS"}, "NCI-H460 lung": {"tested_on": "NCI-H460 lung"}, "P388 leukemia": {"tested_on": "P388 leukemia"}, "OVCAR-4 ovarian": {"tested_on": "OVCAR-4 ovarian"}, "SK-MEL-5 melanoma": {"tested_on": "SK-MEL-5 melanoma"}}, "note": "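Compound exposure: 48 hours, 5 concentrations, 96-well plates. At the TGI there is no net growth.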", "data": [{"smiles": "CCCCCCCCCCCCCCCCCCOP(=O)([O-])OCC[N+](C)(C)C", "values": [{"measurement": "TGI", "setting": "OVCAR-5 ovarian", "value": 6.82, "unit": "µM"}, {"measurement": "TGI", "setting": "SN12C renal", "value": 1.53, "unit": "µM"}, {"measurement": "TGI", "setting": "SN12K1 renal", "value": 26.9, "unit": "µM"}, {"measurement": "TGI", "setting": "SR leukemia", "value": "> 100", "unit": "µM"}, {"measurement": "TGI", "setting": "SNB-78 CNS", "value": 15.8, "unit": "µM"}, {"measurement": "TGI", "setting": "HOP-18 NSCLC", "value": 30.1, "unit": "µM"}, {"measurement": "TGI", "setting": "U251 CNS", "value": 4.71, "unit": "µM"}, {"measurement": "TGI", "setting": "MALME-3M melanoma", "value": 3.38, "unit": "µM"}, {"measurement": "TGI", "setting": "DMS 114 small cell lung", "value": 26.8, "unit": "µM"}, {"measurement": "TGI", "setting": "KM20L2 colon", "value": 12.5, "unit": "µM"}, {"measurement": "TGI", "setting": "NCI-H23 lung", "value": 30.4, "unit": "µM"}, {"measurement": "TGI", "setting": "MOLT-4 leukemia", "value": 5.89, "unit": "µM"}, {"measurement": "TGI", "setting": "HL-60(TB) leukemia", "value": 5.83, "unit": "µM"}, {"measurement": "TGI", "setting": "BT-549 breast", "value": 5.82, "unit": "µM"}, {"measurement": "TGI", "setting": "NCI-H522 lung", "value": 1.46, "unit": "µM"}, {"measurement": "TGI", "setting": "HCT-15 colon", "value": 3.24, "unit": "µM"}, {"measurement": "TGI", "setting": "MCF7 breast", "value": 3.11, "unit": "µM"}, {"measurement": "TGI", "setting": "SW-620 colon", "value": 6.66, "unit": "µM"}, {"measurement": "TGI", "setting": "NCI-H226 lung", "value": 3.31, "unit": "µM"}, {"measurement": "TGI", "setting": "SK-MEL-28 melanoma", "value": 42.2, "unit": "µM"}, {"measurement": "TGI", "setting": "EKVX NSCLC", "value": 8.29, "unit": "µM"}, {"measurement": "TGI", "setting": "M19-MEL melanoma", "value": 16.3, "unit": "µM"}, {"measurement": "TGI", "setting": "OVCAR-8 ovarian", "value": 2.39, "unit": "µM"}, {"measurement": "TGI", "setting": "OVCAR-3 ovarian", "value": 2.79, "unit": "µM"}, {"measurement": "TGI", "setting": "SNB-19 CNS", "value": 47.9, "unit": "µM"}, {"measurement": "TGI", "setting": "HOP-62 NSCLC", "value": 1.38, "unit": "µM"}, {"measurement": "TGI", "setting": "CAKI-1 renal", "value": 22.8, "unit": "µM"}, {"measurement": "TGI", "setting": "UO-31 renal", "value": 36.1, "unit": "µM"}, {"measurement": "TGI", "setting": "HOP-92 NSCLC", "value": 1.07, "unit": "µM"}, {"measurement": "TGI", "setting": "A498 renal", "value": "> 46.4", "unit": "µM"}, {"measurement": "TGI", "setting": "RXF 393 renal", "value": 23.1, "unit": "µM"}, {"measurement": "TGI", "setting": "UACC-257 melanoma", "value": 25.6, "unit": "µM"}, {"measurement": "TGI", "setting": "P388/ADR leukemia", "value": 27.3, "unit": "µM"}, {"measurement": "TGI", "setting": "SK-MEL-2 melanoma", "value": 3.11, "unit": "µM"}, {"measurement": "TGI", "setting": "SK-OV-3 ovarian", "value": 43.4, "unit": "µM"}, {"measurement": "TGI", "setting": "LOX IMVI melanoma", "value": 1.96, "unit": "µM"}, {"measurement": "TGI", "setting": "UACC-62 melanoma", "value": 20.8, "unit": "µM"}, {"measurement": "TGI", "setting": "SNB-75 CNS", "value": 1.7, "unit": "µM"}, {"measurement": "TGI", "setting": "786-0 renal", "value": 0.169, "unit": "µM"}, {"measurement": "TGI", "setting": "COLO 205 colon", "value": 0.5, "unit": "µM"}, {"measurement": "TGI", "setting": "HCC-2998 colon", "value": 7.01, "unit": "µM"}, {"measurement": "TGI", "setting": "SF-268 CNS", "value": 2.21, "unit": "µM"}, {"measurement": "TGI", "setting": "HT29 colon", "value": 2.2, "unit": "µM"}, {"measurement": "TGI", "setting": "DLD-1 colon", "value": 16.9, "unit": "µM"}, {"measurement": "TGI", "setting": "KM12 colon", "value": 0.632, "unit": "µM"}, {"measurement": "TGI", "setting": "CCRF-CEM leukemia", "value": 2.52, "unit": "µM"}, {"measurement": "TGI", "setting": "ACHN renal", "value": 0.37, "unit": "µM"}, {"measurement": "TGI", "setting": "XF 498 CNS", "value": 25.4, "unit": "µM"}, {"measurement": "TGI", "setting": "MDA-MB-231 breast", "value": 3.5, "unit": "µM"}, {"measurement": "TGI", "setting": "DMS 273 small cell lung", "value": 13.4, "unit": "µM"}, {"measurement": "TGI", "setting": "K-562 leukemia", "value": 10.4, "unit": "µM"}, {"measurement": "TGI", "setting": "RPMI-8226 leukemia", "value": 2.64, "unit": "µM"}, {"measurement": "TGI", "setting": "HCT-116 colon", "value": 3.12, "unit": "µM"}, {"measurement": "TGI", "setting": "SF-295 CNS", "value": 3.49, "unit": "µM"}, {"measurement": "TGI", "setting": "IGROV1 ovarian", "value": 26.1, "unit": "µM"}, {"measurement": "TGI", "setting": "A549 NSCLC", "value": 5.13, "unit": "µM"}, {"measurement": "TGI", "setting": "NCI/ADR-RES ovarian", "value": 5.22, "unit": "µM"}, {"measurement": "TGI", "setting": "SF-539 CNS", "value": 2.59, "unit": "µM"}, {"measurement": "TGI", "setting": "NCI-H460 lung", "value": 1.94, "unit": "µM"}, {"measurement": "TGI", "setting": "P388 leukemia", "value": 15.1, "unit": "µM"}, {"measurement": "TGI", "setting": "OVCAR-4 ovarian", "value": 1.29, "unit": "µM"}, {"measurement": "TGI", "setting": "SK-MEL-5 melanoma", "value": 17.5, "unit": "µM"}]}]}
